Source: article PMC11357160, “Gouregine, an α-Gem-Dimethyltetradehydrocularine Alkaloid, and Other Aporphinoid Alkaloids from the Bark of Guatteria olivacea (Annonaceae) and Their In Vitro Cytotoxic Activities” (Molecules, 2024)
“And” between values parts separate entries of the source, which are not always exact repeats. Identical values can stand only once. Counter-ions that a name gives are not always drawn.

Tests used:
[1] = tested on: MRC-5 (human lung fibroblast); assay: Alamar blue cytotoxicity assay, 72 h, noncancerous MRC-5; type: cell-based; conditions: MRC5, MRC-5 noncancerous cells, 72 h incubation
Experimental: (§1) The in vitro cytotoxic activities of the isolated compounds 1–9 were evaluated against the cancer cell lines HepG2 (human hepatocellular carcinoma), KG-1a (human myeloid leukemia), and HCT116 (human colon carcinoma), and the noncancerous cell line MRC-5 (human lung fibroblast) via the Alamar blue assay after 72 h of incubation.
(§2) The HepG2 (human hepatocellular carcinoma), KG-1a (human myeloid leukemia), HCT116 (human colon carcinoma), and MRC-5 (human lung fibroblast) cell lines were obtained from the American Type Culture Collection (ATCC, Manassas, VA, USA) and were cultured as recommended by the American Type Culture Collection (ATCC) animal culture guide. All the cell lines were tested for mycoplasma via a mycoplasma stain kit (Sigma-Aldrich) to validate the use of cells that were free from contamination.
(§3) For the cytotoxicity assay, cell viability was quantified via the Alamar blue method, as previously described. For all the experiments, the cells were plated in 96-well plates. The chemical constituents evaluated varied in purity between 90% and 99.8%, which was determined on the basis of the relative integrals of the signals of the constituents in relation to the signals of the impurities contained. Most of the constituents had purities greater than 95%, except for constituents 4 and 5, which had purities of approximately 90%. The chemical constituents were dissolved in dimethyl sulfoxide (DMSO, Vetec Química Fina Ltda., Duque de Caxias, RJ, Brazil), added to each well, and incubated for 72 h. […] At the end of the treatment, 20 µL of a stock solution (0.312 mg/mL) of resazurin (Sigma-Aldrich Co.) was added to each well. The absorbances at 570 nm and 600 nm were measured via a SpectraMax 190 Microplate Reader (Molecular Devices, Sunnyvale, CA, USA). The half-inhibitory concentration (IC50) was obtained via nonlinear regression with 95% confidence intervals (CIs 95%) via the software GraphPad Prism 8 (Intuitive Software for Science; San Diego, CA, USA).

[2] = tested on: HepG2 (human hepatocellular carcinoma); assay: Alamar blue cytotoxicity assay, 72 h, HepG2; type: cell-based; conditions: for IC50: Homo sapiens, HepG2, Alamar blue, 72 h incubation
Experimental: as §1, §2, §3

[3] = tested on: KG-1a (human myeloid leukemia); assay: Alamar blue cytotoxicity assay, 72 h, KG-1a; type: cell-based; conditions: 72 h incubation
Experimental: as §2
as §3, with “Most of the constituents had purities greater than 95%, except for constituents 4 and 5, which had purities of approximately 90%.” left out, “The half-inhibitory concentration (IC50) was obtained via nonlinear regression with 95% confidence intervals (CIs 95%) via the software GraphPad Prism 8 (Intuitive Software for Science; San Diego, CA, USA).” left out

[4] = tested on: HCT116 (human colon carcinoma); assay: Alamar blue cytotoxicity assay, 72 h, HCT116; type: cell-based; conditions: for IC50: Homo sapiens, HCT-116, HCT116, Alamar blue, 72 h incubation; for Selectivity index (SI): SI = IC50 [noncancerous cells MRC-5]/IC50 [HCT116]
Experimental: as §1, §2, §3

[5] = set-up: method as in PMID 25065531, PMID 33290909, PMID 15540220, PMID 12951096, PMID 35597316; conditions: cited from earlier work
cancer cells = tested on: cancer cells; set-up: method as in PMID 25065531, PMID 33290909, PMID 15540220, PMID 12951096, PMID 35597316; conditions: cited from earlier work
HL-60 leukemia cells = tested on: HL-60 leukemia cells; set-up: method as in ref 47 Kim et al.; conditions: HL-60 cells, via p38 MAPK pathway; ref 47 Kim et al.; cited from earlier work
[6] = set-up: method as in ref 41 = [41]; 41. Osorio D.E.J. Montoya P.G.L. Muñoz D.K. Arango A.G.J. Actividad antiplasmodial de alcaloides aporfínicos de Rollinia pittieri Y Pseudomalmea boyacana (Annonaceae) Vitae 2006 13 49 54; conditions: cited from earlier work
human cancer cells = tested on: human cancer cells; set-up: method as in ref 41 = [41]; 41. Osorio D.E.J. Montoya P.G.L. Muñoz D.K. Arango A.G.J. Actividad antiplasmodial de alcaloides aporfínicos de Rollinia pittieri Y Pseudomalmea boyacana (Annonaceae) Vitae 2006 13 49 54; conditions: cited from earlier work
[7] = tested on: CAOV-3 ovarian cancer cells; set-up: method as in PMID 25792804; conditions: CAOV-3 cells, mitochondrial pathway, activation of caspase-3 and caspase-9; cited from earlier work
[8] = tested on: human colon cancer cell lines and cancer stem cells (Wnt/β-catenin); set-up: method as in PMID 37656375; conditions: through the inhibition of Wnt/β-catenin; cited from earlier work
[9] = tested on: Akt activation in anaplastic human thyroid cancer cells; set-up: method as in PMID 38139812; conditions: cited from earlier work

Compound | IC50 [1] | IC50 [2] | IC50 [4] | further results
COc1c(O)c2c3c(nccc3c1OC)C(C)(C)c1cc(O)ccc1O2 [Gouregine (9), gouregine] | > 25 µg/mL and > 70.7 µM | > 25 µg/mL and > 70.7 µM |  | IC50 [3]: > 25 µg/mL and > 70.7 µM
COc1c(O)c2c3c(c1OC)CCN=C3C(C)(C)c1cc(O)ccc1-2 [Dihydromelosmine (5), dihydromelosmine] | > 25 µg/mL and > 73.7 µM | > 25 µg/mL and > 73.7 µM | > 25 µg/mL and > 73.7 µM | 
C=C[C@@]1(C)CC=C2C(CCC3[C@](C)(C(=O)O)CCC[C@@]23C)C1 (stereo partly drawn) [Acanthoic acid (7), acanthoic acid] | > 25 µg/mL and > 82.7 µM | 14.6 µg/mL and 48.4 µM | 21.2 µg/mL and 70.2 µM | anti-inflammatory activity [5]: anti-inflammatory activity; cytotoxicity to cancer cells (cancer cells): low cytotoxicity; apoptotic cell death (HL-60 leukemia cells): causing apoptotic cell death
COc1c(O)c2c3c(nccc3c1OC)C(C)(C)c1cc(O)ccc1-2 [Melosmine (3), melosmine] | 23.7 µg/mL and 70.3 µM |  | 16.8 µg/mL and 49.7 µM | Selectivity index (SI) [4]: 1.41; antimalarial activity [6]: antimalarial agent; cytotoxicity to human cancer cells (human cancer cells): low cytotoxicity
COc1c2c3c(c(OC)c1OC)-c1ccc(O)cc1C(C)(O)C3=NCC2 (stereo not drawn) [Guattouregidine (8), guattouregidine] | > 25 µg/mL and > 73.2 µM | > 25 µg/mL and > 73.2 µM | > 25 µg/mL and > 73.2 µM | 
O=C1c2ccccc2-c2c3c(cc4ccnc1c24)OCO3 [liriodenine] |  |  |  | apoptosis [7]: caused apoptosis
COc1cc2ccnc3c2c(c1OC)-c1ccccc1C3=O [Lysicamine (6), lysicamine] | 17.2 µg/mL and 59.2 µM |  | 6.64 µg/mL and 22.8 µM | Selectivity index (SI) [4]: 2.60; effect on colon cancer cell lines and cancer stem cells [8]: suppress human colon cancer cell lines and cancer stem cells; effect on Akt activation [9]: inhibit Akt activation
COc1c2c3c(c(OC)c1OC)-c1ccccc1CC3NCC2 (stereo not drawn) [O-Methylisopiline (2), O-methylisopiline] | > 25 µg/mL and > 80.3 µM |  | > 25 µg/mL and > 80.3 µM | 
COc1cccc2c1C(=O)c1c(O)c3c(c(O)c1C2=O)C[C@@](O)(C(=O)CO)C[C@@H]3O[C@H]1C[C@H](N)[C@H](O)[C@H](C)O1 [Doxorubicin, doxorubicin hydrochloride, reference compound] | 1.42 µg/mL and 2.61 µM | 0.04 µg/mL and 70 nM | 0.2 µg/mL and 360 nM | Selectivity index (SI) [4]: 7.10; Selectivity index (SI) ([2]; SI = IC50 [noncancerous cells MRC-5]/IC50 [HepG2]): 35.50; IC50 [3]: 0.22 µg/mL and 400 nM
COc1c(O)c2c3c(c1OC)CCN[C@@H]3Cc1ccccc1-2 [Isopiline (1), isopiline] | > 25 µg/mL and > 84.1 µM |  | > 25 µg/mL and > 84.1 µM | 
COc1c2c3c(c(OC)c1OC)-c1ccc(O)cc1C(C)(C)C3=NCC2 [9-hydroxyiguattescine (4), 9-hydroxyiguattescine] | > 25 µg/mL and > 70.7 µM | > 25 µg/mL and > 70.7 µM | > 25 µg/mL and > 70.7 µM | 
